PMC7110753, “Dafachronic acid and temperature regulate canonical dauer pathways during Nippostrongylus brasiliensis infectious larvae activation” (Parasites & Vectors, 2020)

What was measured:
Cel-DAF-12 (DAF-12) = Cel-DAF-12 (DAF-12) (Caenorhabditis elegans, UniProt G5EFF5); experiment: co-transfection luciferase reporter assay in HEK293 cells (agonist, dose response in Fig. 1b); format: cell-based
[1] = test system: Nbr-DAF-12 (DAF-12 nuclear hormone receptor); experiment: co-transfection luciferase reporter assay in HEK293 cells (agonist)

Cel-DAF-12 (DAF-12), sequence (G5EFF5 whole entry): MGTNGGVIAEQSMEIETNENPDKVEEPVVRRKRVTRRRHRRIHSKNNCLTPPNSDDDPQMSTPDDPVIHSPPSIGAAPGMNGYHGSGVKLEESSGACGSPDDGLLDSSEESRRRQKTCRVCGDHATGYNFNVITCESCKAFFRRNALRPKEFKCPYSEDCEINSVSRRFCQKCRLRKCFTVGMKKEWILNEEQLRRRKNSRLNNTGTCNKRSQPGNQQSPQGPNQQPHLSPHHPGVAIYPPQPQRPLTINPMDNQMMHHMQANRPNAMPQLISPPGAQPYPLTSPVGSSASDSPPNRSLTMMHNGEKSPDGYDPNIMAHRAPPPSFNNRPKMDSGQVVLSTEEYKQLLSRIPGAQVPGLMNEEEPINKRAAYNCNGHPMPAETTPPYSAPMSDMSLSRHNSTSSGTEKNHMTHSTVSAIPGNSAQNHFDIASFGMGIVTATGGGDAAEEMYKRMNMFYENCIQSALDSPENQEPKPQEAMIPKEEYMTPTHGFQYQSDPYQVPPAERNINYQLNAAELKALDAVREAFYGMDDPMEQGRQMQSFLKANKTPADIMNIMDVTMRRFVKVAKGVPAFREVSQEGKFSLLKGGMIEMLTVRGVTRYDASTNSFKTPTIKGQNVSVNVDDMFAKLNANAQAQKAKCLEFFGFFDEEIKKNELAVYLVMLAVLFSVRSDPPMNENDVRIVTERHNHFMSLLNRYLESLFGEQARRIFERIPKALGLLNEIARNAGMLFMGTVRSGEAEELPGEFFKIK

## Δ7-dafachronic acid
Cel-DAF-12 (DAF-12)
  co-transfection luciferase reporter assay in HEK293 cells (agonist, dose respons): responds more weakly to Δ7-dafachronic acid than DAF-12 from either the canine hookworm A. caninum (Aca-DAF-12) or the free-living C. elegans
[1]
  EC50: 115 nM
